Experimental data reported in patent publication US9475819B2, “Substituted 7-azabicycles and their use as orexin receptor modulators” (Janssen Pharmaceutica NV, priority 2013, dated 2016).

What was measured:
human orexin 1 receptor = human orexin 1 receptor (Homo sapiens (Human), UniProt O43613); experiment: Human orexin 1 receptor radioligand binding ([3H]-SB674042 competition, CHO cells); details: [3H]-SB674042 competition binding, read-out: hOX1 Ki
human orexin 2 receptor = human orexin 2 receptor (Homo sapiens (Human), UniProt O43614); experiment: Human orexin 2 receptor radioligand binding ([3H]-EMPA competition, HEK293 cells); details: [3H]-EMPA competition binding, read-out: hOX2 Ki
Chain of human orexin 2 receptor (O43614 whole entry): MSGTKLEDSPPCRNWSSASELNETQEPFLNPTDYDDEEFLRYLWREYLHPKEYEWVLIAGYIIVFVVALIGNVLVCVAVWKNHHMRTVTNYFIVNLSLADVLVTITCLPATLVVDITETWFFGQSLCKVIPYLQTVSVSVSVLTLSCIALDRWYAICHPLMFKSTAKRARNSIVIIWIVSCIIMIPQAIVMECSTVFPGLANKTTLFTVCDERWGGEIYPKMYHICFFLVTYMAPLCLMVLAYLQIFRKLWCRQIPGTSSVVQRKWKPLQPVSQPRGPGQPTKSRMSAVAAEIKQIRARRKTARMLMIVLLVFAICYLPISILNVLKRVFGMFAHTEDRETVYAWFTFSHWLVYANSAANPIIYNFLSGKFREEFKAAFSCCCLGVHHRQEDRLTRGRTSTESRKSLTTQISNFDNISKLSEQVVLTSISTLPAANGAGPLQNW

Chain of human orexin 1 receptor (O43613 whole entry): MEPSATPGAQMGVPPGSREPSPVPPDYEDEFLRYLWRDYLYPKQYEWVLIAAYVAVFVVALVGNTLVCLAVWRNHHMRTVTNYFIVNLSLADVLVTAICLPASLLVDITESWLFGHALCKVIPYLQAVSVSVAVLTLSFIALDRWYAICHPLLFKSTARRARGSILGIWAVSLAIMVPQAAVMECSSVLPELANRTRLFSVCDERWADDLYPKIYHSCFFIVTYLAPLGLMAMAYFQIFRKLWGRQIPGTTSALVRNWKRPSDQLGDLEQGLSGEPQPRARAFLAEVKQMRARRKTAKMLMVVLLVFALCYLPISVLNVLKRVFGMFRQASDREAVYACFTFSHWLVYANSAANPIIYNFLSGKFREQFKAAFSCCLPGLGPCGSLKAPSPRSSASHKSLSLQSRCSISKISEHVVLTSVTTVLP

Cc1ccc(-n2nccn2)c(C(=O)N2C3CCC2C(Nc2ccc(C(F)(F)F)cn2)C3)n1 (racemic) [Example 187, (±)-(6-methyl-3-(2H-1,2,3-triazol-2-yl)pyridin-2-yl)(2-((5-(trifluoromethyl)pyridin-2-yl)amino)-7-azabicyclo[2.2.1]heptan-7-yl)methanone]
Ki (human orexin 1 receptor): 48 nM
Ki (human orexin 2 receptor): 620 nM

Cc1ccc(-n2nccn2)c(C(=O)N2[C@H]3CC[C@@H]2[C@@H](COc2ccc(F)cn2)C3)c1 (single isomer, unassigned) [Example 10B]
Ki (human orexin 2 receptor): 5150 nM
